Legend:
Format in all cases: cell-based, human
MCF7 Native [1] = assay: Proliferation, cell-doubling time
Procedure: (§1) Cells were cultured in the presence or absence of epirubicin for up to 96 h (see Flow Cytometry for epirubicin concentrations). Cells were collected at 24, 48, 72 and 96 hours and counted by ViCell (Beckman Coulter, Mississauga, Canada). Data were analyzed in GraphPad Prism5 software.
(§2) To determine cell-doubling time, the investigators cultured cells with or without epirubicin for up to 96 h. In the absence of epirubicin, the native MDA-MB-231 and MCF7 cell populations doubled every 25 h and 29 h, respectively (Table 2), whereas native SKBR3 and ZR-75-1 cells grew more slowly, doubling every 45 h and 50 h, respectively. In the presence of epirubicin, doubling time increased 2.8-fold for the MDA-MB-231 (p=0.0371), 2.5-fold for MCF7 (ns), 1.3-fold for SKBR3 (p=0.0494) and 1.9-fold for ZR-75-1 (p=0.0258) for native cells. In contrast to the native cell lines, there were no marked changes in the doubling time of the resistant cells, regardless of whether epirubicin was added (Table 2).

SKBR3 Native [2] = assay: Proliferation, cell-doubling time
Procedure: as §1, §2

ZR-75-1 Native [3] = assay: Proliferation, cell-doubling time
Procedure: as §1, §2

ZR-75-1 10 nM-Resistant = assay: Proliferation, cell-doubling time; settings: +10 nM epirubicin
Procedure: as §1, §2

MCF7 30 nM-Resistant = assay: Proliferation, cell-doubling time; settings: +30 nM epirubicin
Procedure: as §1, §2

SKBR3 15 nM-Resistant = assay: Proliferation, cell-doubling time; settings: +15 nM epirubicin
Procedure: as §1, §2

MDA-MB-231 Native [4] = assay: Proliferation, cell-doubling time
Procedure: as §1, §2

[5] = system: MDA-MB-231 25 nM-Resistant; assay: Proliferation, cell-doubling time; settings: +25 nM epirubicin
Procedure: as §1, §2

MDA-MB-231 25 nM-R = assay: Apoptosis, Annexin V flow cytometry; settings: 72 h
Procedure: (§3) For cell cycle, cells were synchronized by the double-thymidine block (Whitfield et al. 2000) and incubated with DMSO or epirubicin doses established for each cell line: 25 nM for MDA-MB-231, 30 nM for MCF7, 15 nM for SKBR3, 10 nM for ZR-75-1. Cells were collected at 48 h, fixed with 80% ethanol and incubated with 2 mg/ml RNase A and 0.1 mg/ml propidium iodide (both from Sigma, Oakville, Canada) prior to analysis. For apoptosis experiments, cells were treated with DMSO or epirubicin at concentrations described above, and collected at 72 h for staining with Annexin V apoptosis-detection eFluor450 (eBioscience, San Diego, USA). Data were collected by FACSCanto II and FACSDiva (BD Biosciences, Mississauga, Canada) and analyzed by FlowJo (Treestar, Ashland, USA).
(§4) To assess the effects of epirubicin on apoptosis, apoptotic cells were scored by flow cytometry after 72 h of exposure to epirubicin. The apoptotic index was consistently lower for resistant cells compared to native controls (Table 1). In particular, MDA-MB-231 and SKBR3 resistant cells required a substantially higher concentration of epirubicin (1000 nM) to induce apoptosis; even at this concentration of epirubicin, the apoptotic index was still nearly 50% lower compared to the native cells (Table 1).

MCF7 Native [6] = assay: Apoptosis, Annexin V flow cytometry; settings: 72 h
Procedure: as §3, §4

MCF7 30 nM-R = assay: Apoptosis, Annexin V flow cytometry; settings: 72 h
Procedure: as §3, §4

SKBR3 15 nM-R = assay: Apoptosis, Annexin V flow cytometry; settings: 72 h
Procedure: as §3, §4

SKBR3 Native [7] = assay: Apoptosis, Annexin V flow cytometry; settings: 72 h
Procedure: as §3, §4

ZR-75-1 Native [8] = assay: Apoptosis, Annexin V flow cytometry; settings: 72 h
Procedure: as §3, §4

ZR-75-1 10 nM-R = assay: Apoptosis, Annexin V flow cytometry; settings: 72 h
Procedure: as §3, §4

MDA-MB-231 Native [9] = assay: Apoptosis, Annexin V flow cytometry; settings: 72 h
Procedure: as §3, §4

SKBR3 native cells = assay: Cell cycle, PI flow cytometry after double-thymidine block; settings: 100 nM epirubicin, 48 h
Procedure: (§5) (A-D) Cells were synchronized by a double-thymidine block and treated with DMSO or epirubicin at selection doses established for each resistant cell line: 25 nM epirubicin to MDA-MB-231, 30 nM epirubicin to MCF7, 15 nM epirubicin to SKBR3 and […]. Epirubicin concentration was increased to 100 nM for MCF7 and SKBR3 cells since G2/M block was not observed at the lower doses of epirubicin. Cells were collected at 48 h, stained by PI and analyzed by flow cytometry. Debris was gated out.
as §3
(§6) Cells were synchronized prior to exposure to DMSO or epirubicin. […] Therefore, overcoming a G2/M block may be part of the process leading to epirubicin resistance.

ZR-75-1 native cells = assay: as above; settings: 10 nM epirubicin, 48 h
Procedure: as §5, §3, §6

MDA-MB-231 native cells = assay: as above; settings: 25 nM epirubicin, 48 h
Procedure: as §5, §3, §6

ZR-75-1 resistant cells = assay: as above; settings: 10 nM epirubicin, 48 h
Procedure: as §5, §3, §6

[10] = system: SKBR3 epirubicin-resistant cells; assay: as above; settings: 100 nM epirubicin, 48 h
Procedure: as §5, §3, §6

[11] = system: MCF7 epirubicin-resistant cells; assay: as above; settings: 100 nM epirubicin, 48 h
Procedure: as §5, §3, §6

MCF7 native cells = assay: as above; settings: 100 nM epirubicin, 48 h
Procedure: as §5, §3, §6

[12] = system: MDA-MB-231 resistant cells; assay: as above; settings: 25 nM epirubicin, 48 h
Procedure: as §5, §3, §6

COc1cccc2c1C(=O)c1c(O)c3c(c(O)c1C2=O)C[C@@](O)(C(=O)CO)C[C@@H]3O[C@H]1C[C@H](N)[C@@H](O)[C@H](C)O1 [epirubicin]
Doubling times (MCF7 Native [1]; MCF7 Native, +30 nM epirubicin): 74 h | increase of doubling time in the presence of epirubicin (MCF7 Native [1]; MCF7 native cells, ns): 2.5 fold | Doubling times (SKBR3 Native [2]; SKBR3 Native, +15 nM epirubicin): 57 h | increase of doubling time in the presence of epirubicin (SKBR3 Native [2]; SKBR3 native cells, p=0.0494): 1.3 fold | Doubling times (ZR-75-1 Native [3]; ZR-75-1 Native, +10 nM epirubicin): 95 h | increase of doubling time in the presence of epirubicin (ZR-75-1 Native [3]; ZR-75-1 native cells, p=0.0258): 1.9 fold | Doubling times (ZR-75-1 10 nM-Resistant): 67 h | Doubling times (MCF7 30 nM-Resistant): 37 h | Doubling times (SKBR3 15 nM-Resistant): 66 h | Doubling times (MDA-MB-231 Native [4]; MDA-MB-231 Native, +25 nM epirubicin): 70 h | increase of doubling time in the presence of epirubicin (MDA-MB-231 Native [4]; MDA-MB-231 native cells, p=0.0371): 2.8 fold | Doubling times [5]: 43 h | Percentages of apoptotic cells (MDA-MB-231 25 nM-R; 1 nM epirubicin): 10% | Percentages of apoptotic cells (MDA-MB-231 25 nM-R; 25 nM epirubicin): 8% | Percentages of apoptotic cells (MDA-MB-231 25 nM-R; 1000 nM epirubicin): 50% | Percentages of apoptotic cells (MCF7 Native [6]; 1 nM epirubicin): 29% | Percentages of apoptotic cells (MCF7 Native [6]; 30 nM epirubicin): 49% | Percentages of apoptotic cells (MCF7 Native [6]; 1000 nM epirubicin): 77% | Percentages of apoptotic cells (MCF7 30 nM-R; 1 nM epirubicin): 24% | Percentages of apoptotic cells (MCF7 30 nM-R; 30 nM epirubicin): 23% | Percentages of apoptotic cells (MCF7 30 nM-R; 1000 nM epirubicin): 78% | Percentages of apoptotic cells (SKBR3 15 nM-R; 1 nM epirubicin): 17% | Percentages of apoptotic cells (SKBR3 15 nM-R; 15 nM epirubicin): 17% | Percentages of apoptotic cells (SKBR3 15 nM-R; 1000 nM epirubicin): 34% | Percentages of apoptotic cells (SKBR3 Native [7]; 1 nM epirubicin): 26% | Percentages of apoptotic cells (SKBR3 Native [7]; 15 nM epirubicin): 24% | Percentages of apoptotic cells (SKBR3 Native [7]; 1000 nM epirubicin): 59% | Percentages of apoptotic cells (ZR-75-1 Native [8]; 1 nM epirubicin): 44% | Percentages of apoptotic cells (ZR-75-1 Native [8]; 10 nM epirubicin): 47% | Percentages of apoptotic cells (ZR-75-1 Native [8]; 1000 nM epirubicin): 71% | Percentages of apoptotic cells (ZR-75-1 10 nM-R; 1 nM epirubicin): 28% | Percentages of apoptotic cells (ZR-75-1 10 nM-R; 10 nM epirubicin): 29% | Percentages of apoptotic cells (ZR-75-1 10 nM-R; 1000 nM epirubicin): 62% | Percentages of apoptotic cells (MDA-MB-231 Native [9]; 1 nM epirubicin): 17% | Percentages of apoptotic cells (MDA-MB-231 Native [9]; 25 nM epirubicin): 41% | Percentages of apoptotic cells (MDA-MB-231 Native [9]; 1000 nM epirubicin): 94% | effect on cell cycle (SKBR3 native cells): arrested in G2/M phase | effect on cell cycle (ZR-75-1 native cells): arrested in G2/M phase | effect on cell cycle (MDA-MB-231 native cells): arrested in G2/M phase | effect on cell cycle (ZR-75-1 resistant cells): progressed through | effect on cell cycle [10]: minimal effect | effect on cell cycle [11]: minimal effect | effect on cell cycle (MCF7 native cells): arrested in G2/M phase | effect on cell cycle [12]: progressed through

Reference: patent US20180282819A1, “Targeting the Histone Pathway to Detect and Overcome Anthracyclin Resistance” (ONTARIO INSTITUTE FOR CANCER RESEARCH (OICR), priority 2015, published 2018)
